Publication PMC9837865 (Pharmacology, biochemistry, and behavior, 2022)
Where two headings read alike, the source gives them in different places.

Tests used:
[1] = test system: male ICR mice; assay: Rectal temperature time course
[2] = target: T1, hCB1 receptor (Homo sapiens, UniProt P21554); assay: [3H]CP55,940 competition binding at hCB1 in HEK293 cell membranes; conditions: for Ki: value in parenthesis
[3] = target: T2, hCB2 receptor (Homo sapiens, UniProt P34972); assay: Agonist-stimulated [35S]GTPγS binding, hCB2 HEK293 membranes; conditions: for greater potency at hCB2 receptors than at hCB1 receptors: [35S]GTPγS potency ratio
[4] = target: T1, hCB1 receptor; assay: Agonist-stimulated [35S]GTPγS binding, hCB1 HEK293 membranes
[5] = target: T2, hCB2 receptor; assay: [3H]CP55,940 competition binding at hCB2 in HEK293 cell membranes; conditions: for greater affinity at hCB2 receptors than at hCB1: binding affinity ratio hCB2 over hCB1
[6] = test system: male ICR mice; assay: Rectal temperature dose-effect; conditions: for maximal hypothermia, difference from that produced by Δ9-THC: across the dose range tested
[7] = radiotelemetry, 6-h period; ref Sparkes et al., 2022; cited from earlier work
[8] = 3 mg/kg i.p., compared to vehicle at same timepoint
[9] = CB1 Ki, [3H]CP55,940 displacement
[10] = [35S]GTPγS Turnover CB2 EC50, value in parenthesis
[11] = [35S]GTPγS Turnover CB2 pEC50, pEC50 ± SEM
[12] = CB2 Ki, [3H]CP55,940 displacement, value in parenthesis
[13] = 10 mg/kg i.p., compared to vehicle at same timepoint
[14] = 100 mg/kg i.p., compared to vehicle at same timepoint
[15] = [3H]CP55,940 displacement, pKi ± SEM

T1 sequence (P21554 whole entry): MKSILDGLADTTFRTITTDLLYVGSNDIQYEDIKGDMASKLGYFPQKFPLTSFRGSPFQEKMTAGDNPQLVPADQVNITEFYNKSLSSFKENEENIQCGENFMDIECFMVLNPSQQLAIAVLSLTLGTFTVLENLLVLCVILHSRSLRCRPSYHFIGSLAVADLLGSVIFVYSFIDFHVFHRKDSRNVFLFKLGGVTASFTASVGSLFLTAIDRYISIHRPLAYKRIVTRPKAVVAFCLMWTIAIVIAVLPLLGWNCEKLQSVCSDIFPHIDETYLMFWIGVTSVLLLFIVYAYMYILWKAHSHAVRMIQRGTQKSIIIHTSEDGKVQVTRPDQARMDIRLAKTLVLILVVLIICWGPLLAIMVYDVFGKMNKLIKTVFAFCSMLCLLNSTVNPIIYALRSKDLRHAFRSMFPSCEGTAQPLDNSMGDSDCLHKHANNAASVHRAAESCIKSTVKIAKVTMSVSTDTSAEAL
T2 sequence (P34972 whole entry): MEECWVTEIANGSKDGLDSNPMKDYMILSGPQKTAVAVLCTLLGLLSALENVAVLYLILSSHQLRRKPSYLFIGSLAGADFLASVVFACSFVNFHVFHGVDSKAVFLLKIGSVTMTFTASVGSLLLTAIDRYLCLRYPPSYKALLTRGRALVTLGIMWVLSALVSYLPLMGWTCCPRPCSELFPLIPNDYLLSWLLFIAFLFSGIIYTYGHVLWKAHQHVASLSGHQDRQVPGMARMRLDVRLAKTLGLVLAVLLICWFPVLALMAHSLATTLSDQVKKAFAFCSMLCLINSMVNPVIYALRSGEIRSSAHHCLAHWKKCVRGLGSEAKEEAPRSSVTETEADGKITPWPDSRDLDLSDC

Row | Structure (SMILES) | duration of significant hypothermic effect [1, 8] [h] | Ki [2, 9] [nM] | [35S]GTPγS Turnover CB2 Emax [3] | EC50 [3, 10] [nM] | EC50 [4] [nM] | [35S]GTPγS Turnover CB1 Emax [4] | Ki [5, 12] [nM] | maximal hypothermia, difference from that produced by Δ9-THC [6] [°C] | greater potency at hCB2 receptors than at hCB1 receptors [3] [fold] | greater affinity at hCB2 receptors than at hCB1 [5] [fold] | also measured
1 | CCOC(=O)C(NC(=O)c1nn(CCCCCF)c2ccccc12)C(C)(C)C (stereo not drawn) [5F-EDMB-PINACA, ethyl 2-(1-(5-fluoropentyl)-1H-indazole-3-carboxamido)-3,3-dimethylbutanoate] | 3 | 0.378 | 161 ± 8.36 3 % stimulation over basal | 0.442 | 1.6 | 387 ± 69.0 ^† 3 % stimulation over basal | 0.312 |  |  |  | EC50 [3, 11]: 0.437 nM
2 | COC(=O)[C@@H](NC(=O)c1cn(CCCCCF)c2ccccc12)C(C)(C)C [5F-MDMB-PICA, methyl (2S)-2-{[1-(5-fluoropentyl)-1H-indole-3-carbonyl]amino}-3,3-dimethylbutanoate] | 7 | 1.25 | 189 ± 25.2 3 % stimulation over basal | 1.65 | 5.07 | 380 ± 27.4 ^^ 3 % stimulation over basal | 0.437 |  |  |  | 
3 | COC(=O)[C@@H](NC(=O)c1cn(CCCCCF)c2ccccc12)C(C)C [5F-MMB-PICA, methyl (2S)-2-[[1-(5-fluoropentyl)indole-3-carbonyl]amino]-3-methylbutanoate] |  | 6.45 | 77.8 ± 13.3 3 % stimulation over basal | 8.19 | 27 | 295 ± 21.2 ^† 3 % stimulation over basal | 3.4 | ≤ 1.5 |  |  | duration of significant hypothermic effect [1, 13]: 3 h
4 | CCCCn1nc(C(=O)N[C@@H](Cc2ccccc2)C(N)=O)c2ccccc21 [APP-BINACA, N-[(2S)-1-amino-1-oxo-3-phenylpropan-2-yl]-1-butylindazole-3-carboxamide] |  | 107 | 83.2 ± 2.72 3 % stimulation over basal | 2.24 | 344 | 180 ± 25.1 3 % stimulation over basal | 9.34 |  | 153 | 12 | duration of significant hypothermic effect [1, 14]: 4 h; hypothermia [7]: failed to produce any hypothermia
5 | CC1(C)C(C(=O)c2cn(Cc3ccc(F)cc3)c3ccccc23)C1(C)C [FUB-144, (1-(4-fluorobenzyl)-1H-indol-3-yl)(2,2,3,3-tetramethylcyclopropyl)methanone] |  | 27.2 | 194 ± 8.45 3 % stimulation over basal | 4.61 | 90.6 | 218 ± 31.5 4 % stimulation over basal | 1.19 | ≤ 1.5 | 20 | 23 | duration of significant hypothermic effect ([1]; 20 mg/kg i.p.): 1 h; Ki ([5]; CB2 pKi, [3H]CP55,940 displacement, pKi ± SEM): 1.17 nM
6 | O=C(NC12CC3CC(CC(C3)C1)C2)c1nn(Cc2ccc(F)cc2)c2ccccc12 [FUB-AKB48, N-((3s,5s,7s)-adamantan-1-yl)-1-(4-fluorobenzyl)-1H-indazole-3-carboxamide] |  |  | 131 ± 16.5 4 % stimulation over basal |  |  | 368 ± 55.5 ^‡ 4 % stimulation over basal |  | ≤ 1.5 | 16 |  | duration of significant hypothermic effect [1, 13]: ≤ 1 h; CB1 pKi [2, 15]: 8.89 ± 0.265; Ki ([2]; read-out: CB1 Ki, [3H]CP55,940 displacement): 1.3 nM; [35S]GTPγS Turnover CB2 pEC50 ([3]; pEC50 ± SEM): 9.37 ± 0.318; EC50 ([3]; read-out: [35S]GTPγS Turnover CB2 EC50, value in parenthesis): 0.424 nM; [35S]GTPγS Turnover CB1 pEC50 ([4]; pEC50 ± SEM): 8.16 ± 0.162; EC50 ([4]; read-out: [35S]GTPγS Turnover CB1 EC50, value in parenthesis): 6.94 nM; CB2 pKi [5, 15]: 9.08 ± 0.0188; Ki ([5]; read-out: CB2 Ki, [3H]CP55,940 displacement, value in parenthesis): 0.823 nM
7 | C=CCCCn1nc(C(=O)NC(C(=O)OC)C(C)(C)C)c2ccccc21 (stereo not drawn) [MDMB-4en-PINACA, methyl 3,3-dimethyl-2-{[1-(pent-4-en-1-yl)-1H-indazole-3-carbonyl]amino}butanoate] | 4 | 1.4 | 63.6 ± 9.95 3 % stimulation over basal | 1.34 | 3.3 | 304 ± 42.8 ^‡ 3 % stimulation over basal | 0.213 |  |  | 7 | 
8 | C=CCCCn1cc(C(=O)NC(C(=O)OC)C(C)C)c2ccccc21 (stereo not drawn) [MMB-4en-PICA, methyl 3-methyl-2-[(1-pent-4-enylindole-3-carbonyl)amino]butanoate] |  | 39 | 77.6 ± 7.17 5 % stimulation over basal | 12.4 | 60.7 | 298 ± 31.9 ^‡ 4 % stimulation over basal | 15.6 | ≤ 1.5 |  |  | duration of significant hypothermic effect ([1]; 60 mg/kg i.p.): 5 h
9 | COC(=O)C(NC(=O)c1cn(Cc2ccc(F)cc2)c2ccccc12)C(C)C (stereo not drawn) [MMB-FUBICA, methyl 2-(1-(4-fluorobenzyl)-1H-indole-3-carboxamido)-3-methylbutanoate] |  | 12 | 52.1 ± 6.73 3 % stimulation over basal | 22.1 | 59.7 | 278 ± 29.3 ^† 3 % stimulation over basal | 22.5 | ≤ 1.5 |  |  | duration of significant hypothermic effect ([1]; 6 mg/kg i.p.): 2 h; greater affinity for CB1 than CB2 ([2]; binding affinity ratio CB1 over CB2): approximately 2 fold; EC50 [3, 11]: 22.4 nM
10 | CCCCCc1cc(O)c2c(c1)OC(C)(C)[C@@H]1CCC(C)=C[C@@H]21 [Δ^9-THC, Δ^9-tetrahydrocannabinol, reference compound] |  |  |  |  |  |  |  |  |  |  | time of peak hypothermic effect post-injection ([1]; 100 mg/kg i.p.): 1 to 3 h; duration of significant hypothermic effect [1, 14]: 8 h; time of peak hypothermic effects ([1]; single dose of each compound, as summarised in the discussion): 2 h; lowest dose that decreased temperature ([6]; i.p., compared to vehicle): 30 mg/kg
